Source: patent US7183385B2, “Phospho-specific antibodies to Flt3 and uses thereof” (Cell Signaling Technology, Inc., priority 2002, dated 2007)

Target: T1, constitutively active Flt3 in EOL-1 cells (Homo sapiens, UniProt P36888)
T1 construct: expresses an endogenous, constitutively active Flt3; endogenous in cells; host or cells: EOL-1 hematopoietic cell line
T1 sequence (P36888 27-993): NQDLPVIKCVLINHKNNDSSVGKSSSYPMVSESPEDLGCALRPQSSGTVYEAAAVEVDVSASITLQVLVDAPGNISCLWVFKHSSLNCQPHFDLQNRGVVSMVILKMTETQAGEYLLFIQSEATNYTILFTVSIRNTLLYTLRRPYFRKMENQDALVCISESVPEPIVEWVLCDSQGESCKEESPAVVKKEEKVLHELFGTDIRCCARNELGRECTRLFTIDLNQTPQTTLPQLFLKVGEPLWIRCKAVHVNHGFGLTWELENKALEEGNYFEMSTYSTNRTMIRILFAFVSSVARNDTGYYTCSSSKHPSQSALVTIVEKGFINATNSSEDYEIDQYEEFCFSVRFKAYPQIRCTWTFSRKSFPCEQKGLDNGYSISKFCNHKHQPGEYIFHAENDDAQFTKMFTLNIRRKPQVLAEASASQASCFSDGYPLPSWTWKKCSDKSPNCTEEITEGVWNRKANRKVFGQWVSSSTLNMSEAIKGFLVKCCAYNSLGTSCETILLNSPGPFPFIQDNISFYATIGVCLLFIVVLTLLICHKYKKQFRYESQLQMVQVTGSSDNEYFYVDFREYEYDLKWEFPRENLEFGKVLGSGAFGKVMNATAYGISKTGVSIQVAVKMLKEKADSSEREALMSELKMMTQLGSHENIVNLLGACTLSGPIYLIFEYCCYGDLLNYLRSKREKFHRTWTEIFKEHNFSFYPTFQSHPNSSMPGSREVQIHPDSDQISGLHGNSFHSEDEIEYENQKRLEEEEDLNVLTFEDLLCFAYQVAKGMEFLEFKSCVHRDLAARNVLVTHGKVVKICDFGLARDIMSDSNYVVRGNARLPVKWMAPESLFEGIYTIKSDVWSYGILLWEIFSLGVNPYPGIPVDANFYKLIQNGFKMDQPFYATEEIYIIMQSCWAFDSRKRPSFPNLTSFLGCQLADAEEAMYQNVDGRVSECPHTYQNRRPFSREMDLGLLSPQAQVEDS
Test: Flt3 inhibitor effect on phospho-Flt3(Tyr591) staining in EOL-1 cells by flow cytometry
Assay type: cell-based
Settings: serum-starved EOL-1 cells, inhibitor 4 hours at 37° C.; FIG. 6
Protocol: Flt3(Tyr591) phosphospecific monoclonal antibody CST #25-54 was used in flow cytometry to detect phospho-Flt3(Tyr591) in the EOL-1 hematopoietic cell line that expresses an endogenous, constitutively active Flt3. Serum-starved cells were incubated with or without the small molecule Flt3 inhibitor AG1296 for 4 hours at 37° C. The cells then were fixed with 2% paraformaldehyde for 10 minutes at 37° C. followed by cell permeabilization 90% with methanol for 30 minutes on ice. The fixed cells were then stained with the Alexa 488-conjugated Flt3 primary antibody for 1 hour at room temperature. The cells were then analyzed on a Beckman Coulter EPICS-XL flow cytometer.

Activity against Flt3 (in words): active against Flt3 | Population of cells showing less staining with the phospho-Flt3(Tyr591) antibody in the presence of the drug: approximately 30 % of the total cells
SMILES: COc1cc2ncc(-c3ccccc3)nc2cc1OC [AG1296]
